Laboratory results reported in publication PMC7591920, “A protein tertiary structure mimetic modulator of the Hippo signalling pathway” (Nature Communications, 2020).
Bridge positions count the residues as written; N and C are the ends. Peptide text beside a SMILES is read from it.

How the values were obtained:
GST-hTEAD1 = target: T1, GST-hTEAD1 (Homo sapiens, UniProt P28347); assay: SPR binding to immobilised GST-hTEAD1; settings: GST-hTEAD1 amine-coupled on CM5, multi-cycle, steady-state fit 1:1 model, 10 mM HEPES 150 mM NaCl 0.05% Tween-20 pH 7.4, 0.3% DMSO, 20 °C, Fig. 1 values n = 1 replicate
T1 construct: CDNA of hTEAD1(209–426) fused with an N-terminal GST tag; made in house; host or cells: Escherichia coli BL21 DE3 RIL(K+)
Method in brief: (§1)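 Proteins amine-coupled (NHS/EDC) to CM5 chips from 10 mM MES pH 6.4; running buffer 10 mM HEPES, 150 mM NaCl, 0.05% Tween-20, pH 7.4, 20 °C, 30 µL min^−1. Multi-cycle kinetics: seven threefold analyte dilutions from 30 µM, 45 s contact, 6-min dissociation, reference-surface subtracted.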

mTEAD4 = target: T2, mTEAD4 (Mus musculus, UniProt Q62296); assay: SPR binding to immobilised mTEAD4; settings: mTEAD4 amine-coupled on CM5, multi-cycle, steady-state fit 1:1 model, 10 mM HEPES 150 mM NaCl 0.05% Tween-20 pH 7.4, 0.3% DMSO, 20 °C, Fig. 1 values n = 1 replicate
T2 construct: Mouse TEAD4(210–427) cDNA fused with a 6x His-tag and a 3C protease cleavage site; 6x His-tag; 3C protease cleavage site; made in house; host or cells: E. coli BL21 DE3 RIL(K+)
Method in brief: as §1

RKO cells [1] = assay: Sub-cellular (cytoplasmic, nuclear) peptide concentration in RKO cells by UPLC-MS; settings: for Sub-cellular drug content, Cytoplasm, Measured concentration / Sub-cellular drug content, Cytoplasm, nMol / Sub-cellular drug content, Nuclear, Measured concentration / Sub-cellular drug content, Nuclear, nMol / Sub-cellular drug content, Cytoplasm, pMol.mg-1 / Sub-cellular drug content, Nuclear, pMol.mg-1: 25 µM compound, n = 2; for Sub-cellular drug content, Cytoplasm, pMol.mg-1 / Sub-cellular drug content, Nuclear, pMol.mg-1: per mg protein; for Cytoplasmic concentration of peptide: cytoplasmic fraction; for Nuclear concentration of peptide: nuclear fraction; for Cytoplasmic concentration, raw data / Nuclear concentration, raw data: sheet Figure 3c, 25 µM unlabelled peptide; for Intracellular concentration: mass spectrometry
Experimental: Peptides were incubated in RKO cells (ATCC, #CRL-2577) as follows: Experiment 1: RKO cells were incubated in 25 µM compound for 90 min and 24 h. Experiment 2: RKO cells were incubated in 25 µM for 30 min or 72 h. Following peptide incubation, the cells were washed twice with PBS, trypsinized and pelleted. The pellets were lysed in RIPA buffer (Perkin Elmer) for total lysis, or CelLytic NuCLEAR Extraction Kit (SIGMA) for subcellular fractionation. Total protein quantification BCA (Pierce) was performed prior to MS analysis to normalize sample data. Total and fractionated cell lysates were analysed by quantitative UPLC-MS utilizing a Waters Xevo TQ-XS (WBA0259) and an Acquity UPLC system from Waters consisting of Sample Manager (M16UFL953M), Acquity PDA (F17UPD457A), Column Oven (E17CMP703G) and Binary Solvent Manager (E17BUR621G). […] Chromatograms of the samples were treated similarly, and by linear regression (1/x) an in-cell concentration was established in the re-suspended cell lysate using the Waters MassLynx TargetLynx^TM product.

RKO cells [2] = assay: Wound closure assay; type: cell-based; settings: c = 30 µM, 48 h treatment
Experimental: Ca. 100,000 RKO cells were seeded per well in a transparent ImageLock 96-well plate (#4379, Essen Bioscience) and treated with the samples the next day. Wound Healing Assay was performed using the IncuCyte® ZOOM system and the WoundMaker™ device (both Essen Bioscience). The scratch was performed according to manufacturer’s protocol and images were acquired every 2 h. Image-based analysis of wound closure was conducted using the IncuCyte ZOOM 2016B software (Essen Bioscience). Confluency within the wound area was normalized to the confluency at the time of scratch preparation and plotted using GraphPad Prism 6.

YAP–TEAD interaction = assay: Proximity ligation assay (PLA) in RKO cells; type: cell-based; settings: 24 h incubation, c = 30 µM
Experimental: Ca. 5000 RKO cells were seeded per well in black 96-well plates with glass bottom (#5241-20, MoBiTec) and treated with the peptides or DMSO as vehicle control. After 24 h, the cells were fixed for 10 min using 4% paraformaldehyde (#UN2209, AppliChem) in PBS prior to permeabilization with 0.1% Triton X-100 (#39795.02, Serva) in PBS for 10 min. […] The cells were treated with the corresponding PLA probes (donkey anti-rabbit PLUS, #DUO92002, dilution 1:5; donkey anti-mouse MINUS, #DUO92004, dilution 1:5, Sigma-Aldrich) and with the Duolink In Situ Detection Orange Kit (#DUO92007, Sigma-Aldrich) for ligation and amplification according to the manufacturer's instructions. Finally, the cells were treated with 1 μg mL^-1 DAPI (#D9542, Sigma-Aldrich) to stain nuclei for further microscopy analysis. Images were acquired using a Zeiss Observer Z1 microscope with an 63× oil objective. Picture data were analysed by the ImageJ “analyze particles” macro to count PLA spots per cell. Ten pictures were counted for each condition per experiment. Statistical analysis was performed using Student's paired t test.

rat heart cells = assay: Cell toxicity assessment on rat heart cells in culture; settings: c(peptide) = 10 µM
Experimental: whole heart cells monitored by fluorescence microscopy after 90 minutes treatments (scale bar: 25 µm), number of […]
4E as well as control compounds (SB203580, CHIR99021) on rat heart cells in culture (c(peptide) = 10 µM). Number of independent biological replicates: n = 6, error bars = SEM. […]
cytometry analysis of live cells after 90 min incubation at 5 µM: Representative histogram plot, (-) DMSO control). Source data are provided as a Source Data file.
(1 picture or pasted object on this page, not shown here)

GST-hTEAD1 / biotin-VGL4 = target: T3, GST-hTEAD1 / biotin-VGL4 (Homo sapiens, UniProt P28347); assay: Competition pull-down of GST-hTEAD1 with immobilised biotin-VGL4; type: biochemical; settings: GST-hTEAD1 1 µM, peptide 50 and 200 µM, biotin-VGL4 on streptavidin beads, 2.5 h, SDS-PAGE, n = 1
T3 construct: CDNA of hTEAD1(209–426) fused with an N-terminal GST tag; made in house; host or cells: Escherichia coli BL21 DE3 RIL(K+); bait peptide synthetic
Experimental: Beads were then extensively washed with the incubation buffer followed by protein elution after boiling the beads at 95 °C for 10 min in 25 µL of SDS loading buffer. SDS PAGE was performed using standard methods and the gel was visualized after Coomassie staining with a Li-COR Fc Imager.

[3] = 90 minutes, fractionation, UPLC-MS
[4] = 24 hours, fractionation, UPLC-MS

T3 sequence (P28347 209-426): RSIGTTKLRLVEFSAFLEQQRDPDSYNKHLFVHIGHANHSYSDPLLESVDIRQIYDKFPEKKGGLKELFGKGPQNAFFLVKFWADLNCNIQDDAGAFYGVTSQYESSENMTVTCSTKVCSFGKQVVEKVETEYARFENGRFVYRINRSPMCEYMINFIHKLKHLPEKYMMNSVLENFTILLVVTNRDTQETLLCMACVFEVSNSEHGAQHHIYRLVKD
T1 sequence (P28347 209-426): as above
T2 sequence (Q62296 210-427): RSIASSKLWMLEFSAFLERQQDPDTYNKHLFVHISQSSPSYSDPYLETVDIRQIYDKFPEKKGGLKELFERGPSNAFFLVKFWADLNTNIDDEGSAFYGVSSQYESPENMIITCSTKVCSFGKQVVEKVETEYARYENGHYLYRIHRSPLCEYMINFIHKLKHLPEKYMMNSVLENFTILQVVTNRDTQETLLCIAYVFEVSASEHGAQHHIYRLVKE

CC[C@H](C)[C@@H]1NC(=O)[C@H](CCC(N)=O)NC(=O)[C@H](CC(C)C)NC(=O)[C@H](Cc2c[nH]c3ccccc23)NC(=O)[C@H]([C@@H](C)O)NC(=O)[C@H](CC(=O)O)NC(=O)CNC(=O)[C@H](CC(C)C)NC(=O)[C@H](C)NC(=O)[C@H](CCCCN)NC(=O)[C@H](C)NC(=O)[C@H](Cc2ccccc2)NC(=O)[C@H](Cc2c[nH]cn2)NC(=O)[C@H](CC(=O)O)NC(=O)[C@@H](NC(=O)[C@@H](NC(=O)[C@H](CO)NC(C)=O)C(C)C)CCC(=O)NCCCC[C@@H](C(=O)N[C@@H](C)C(=O)N[C@@H](C)C(N)=O)NC1=O [4E] (Ac-SVEDHFAKALGDTWLQIKAA-NH2; lactam 3-18)
Kd (GST-hTEAD1): 0.7 µM
Kd (mTEAD4): 1.2 µM
Sub-cellular drug content, Cytoplasm, Measured concentration (RKO cells [1]; [3]): < LLOQ
Sub-cellular drug content, Cytoplasm, nMol (RKO cells [1]; [3]): < LLOQ
Sub-cellular drug content, Nuclear, Measured concentration (RKO cells [1]; [3]): < LLOQ
Sub-cellular drug content, Nuclear, nMol (RKO cells [1]; [3]): < LLOQ
Sub-cellular drug content, Cytoplasm, pMol.mg-1 (RKO cells [1]; [3]): < LLOQ
Sub-cellular drug content, Nuclear, pMol.mg-1 (RKO cells [1]; [3]): < LLOQ
Sub-cellular drug content, Cytoplasm, Measured concentration (RKO cells [1]; [4]): < LLOQ
Sub-cellular drug content, Cytoplasm, nMol (RKO cells [1]; [4]): < LLOQ
Sub-cellular drug content, Nuclear, Measured concentration (RKO cells [1]; [4]): < LLOQ
Sub-cellular drug content, Nuclear, nMol (RKO cells [1]; [4]): < LLOQ
Sub-cellular drug content, Cytoplasm, pMol.mg-1 (RKO cells [1]; [4]): < LLOQ
Sub-cellular drug content, Nuclear, pMol.mg-1 (RKO cells [1]; [4]): < LLOQ
Cytoplasmic concentration of peptide (RKO cells [1]; UPLC-MS, raw data replicate 1): <LLOQ
Cytoplasmic concentration of peptide (RKO cells [1]; UPLC-MS, raw data replicate 2): <LLOQ
Nuclear concentration of peptide (RKO cells [1]; UPLC-MS, raw data replicate 1): <LLOQ
Nuclear concentration of peptide (RKO cells [1]; UPLC-MS, raw data replicate 2): <LLOQ
Cytoplasmic concentration, raw data (RKO cells [1]; UPLC-MS, replicate 1): <LLOQ
Nuclear concentration, raw data (RKO cells [1]; UPLC-MS, replicate 1): <LLOQ
Cytoplasmic concentration, raw data (RKO cells [1]; UPLC-MS, replicate 2): <LLOQ
Nuclear concentration, raw data (RKO cells [1]; UPLC-MS, replicate 2): <LLOQ
Detection in cytoplasmic and nuclear fractions (RKO cells [1]; unlabelled peptide 25 µM, 90 min and 24 h, fractionation, UPLC-MS): not detected in subcellular fractions
Intracellular concentration (RKO cells [1]; unlabelled peptide 25 µM, 90 min incubation, n = 2 biological replicates): < LLOQ
Intracellular concentration (RKO cells [1]; unlabelled peptide 25 µM, 24 hours incubation, N = 2 biological replicates): < LLOQ
Effect on wound closure (RKO cells [2]): no effect
Effect on YAP–TEAD complexes (PLA) (YAP–TEAD interaction): only shows a small change in PLA events
Total cell number (% DMSO control) (rat heart cells; raw data replicate 1): 98.8636 % DMSO control
Total cell number (% DMSO control) (rat heart cells; raw data replicate 2): 123.588 % DMSO control
Total cell number (% DMSO control) (rat heart cells; raw data replicate 3): 109.739 % DMSO control
Total cell number (% DMSO control) (rat heart cells; raw data replicate 4): 95.1959 % DMSO control
Total cell number (% DMSO control) (rat heart cells; raw data replicate 5): 66.1379 % DMSO control
Total cell number (% DMSO control) (rat heart cells; raw data replicate 6): 63.0015 % DMSO control
Competition with TEAD–VGL4 complex formation (pull-down) (GST-hTEAD1 / biotin-VGL4): compete with TEAD–VGL4 complex formation
